Experimental data: patent US20240124412A1, “IKAROS ZINC FINGER FAMILY DEGRADERS AND USES THEREOF” (Gilead Sciences, Inc., priority 2021, published 2024)

Assays:
[1] = molecular target: T1, IKZF1 (Homo sapiens, UniProt Q13422+Q96SW2); assay: HiBiT protein tagging assay, in vitro IKZF1 degradation (HEK293); format: cell-based; conditions: HEK293, 18-24 hr incubation, normalized to DMSO control; for Dmax: read-out: IKZF1 Dmax (maximum degradation at the highest concentration tested); for DC50: read-out: IKZF1 EC50
T1 construct: expressed in transfected cells
Procedure: (§1) In vitro degradation of IKZF1 and IKZF2 was measured using HiBiT protein tagging and detection technology (Promega).
(§2) HiBiT technology (Promega) was used to develop the quantitative assays to measure the cellular IKZFs level by tagging an 11 amino acid HiBit peptides VSGWRLFKKIS (SEQ ID NO:1) to the protein of interest. Reporter plasmids were generated by fusing a linker sequence (GSSGGSSG; SEQ ID NO:2) followed by the HiBiT tag at the C terminus of IKZF1 and IKZF2. The fusion fragments were subsequently cloned into pcDNA5 pcDNA™5/FRT/TO plasmids (Thermo Fisher, cat #V652020) downstream of the Tetracycline operator. The resulting plasmids were co-transfected with pOG44 Flp-Recombinase Expression Vector (Thermo Fisher, cat #V600520) into Flp-In™ T-REx HEK293 line (Thermo Fisher, cat #R78077) and a stable cell pool was selected by adding 100 μg/ml of Hygromycin (Thermo Fisher, cat #10687010). The reporter cell enabled Tet-On inducible reporter expression from a single copy of the integrated gene.
(§3) On Day 1, Cells were grown to ˜80% confluency in TC medium (DMEM Glutamax (Gibco10569), 10% Tet free FBS (Takara 631106), and PenStrep Glutamin (Gibco 10378)) in tissue culture flasks. Doxycycline was then added to a final concentration of 1 μg/ml to induce reporter expression at 37° C. overnight.
(§4) On Day 2, 125 nL of serially-diluted solution of testing compounds were dispensed into 384-well white solid assay plates via ECHO acoustic liquid handler. Cells were lifted by 0.25% Trypsin (Gibco 25200) then pelleted by centrifugation (Beckman Avanti J-E) at 500×g for 5 min. Cell pellets were resuspended in TC medium at the concentration of 3e5/mL and 25 μL of cell suspension were added into each well of compound-spotted plates. The plates were returned to a 37° C. incubator overnight (18-24 hr).
(§5) On Day 3, assay plates were removed from the TC incubator and 25 μL of Nano-Glo lytic detection system (Promega, cat #N3030) was added to each well. Plates were incubated at r.t. for 3 min with shaking, and luminescence was read using an Envision reader (Perkin Elmer).
(§6) All raw data was normalized to DMSO control (final concentration: 0.5%) wells as POC and plotted out for EC50 and Dmax (Maximum degradation at the highest concentration tested in the assay).

[2] = molecular target: T2, IKZF2 (Homo sapiens, UniProt Q96SW2+Q9UKS7); assay: HiBiT protein tagging assay, in vitro IKZF2 degradation (HEK293); format: cell-based; conditions: HEK293, 18-24 hr incubation, normalized to DMSO control; for Dmax: HEK293, HiBiT assay, read-out: IKZF2 Dmax (maximum degradation at the highest concentration tested); for DC50: HiBiT assay, read-out: IKZF2 EC50
T2 construct: expressed in transfected cells
Procedure: as §1, §2, §3, §4, §5, §6

T2 sequence (Q9UKS7 1-500 isoform Q9UKS7-2): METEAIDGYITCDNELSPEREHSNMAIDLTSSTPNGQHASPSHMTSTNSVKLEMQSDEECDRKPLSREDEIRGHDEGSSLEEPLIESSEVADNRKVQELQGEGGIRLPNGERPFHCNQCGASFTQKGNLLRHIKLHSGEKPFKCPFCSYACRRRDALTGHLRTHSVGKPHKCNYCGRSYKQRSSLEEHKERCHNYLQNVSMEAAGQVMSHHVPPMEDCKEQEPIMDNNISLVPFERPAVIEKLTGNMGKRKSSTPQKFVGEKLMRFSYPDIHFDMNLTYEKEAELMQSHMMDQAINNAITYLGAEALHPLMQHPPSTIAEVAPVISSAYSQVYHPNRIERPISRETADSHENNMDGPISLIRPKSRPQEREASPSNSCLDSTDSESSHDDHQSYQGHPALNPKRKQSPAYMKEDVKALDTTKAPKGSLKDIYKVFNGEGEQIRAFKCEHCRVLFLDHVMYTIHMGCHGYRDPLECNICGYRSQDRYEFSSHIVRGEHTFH
T2 sequence (Q96SW2 whole entry): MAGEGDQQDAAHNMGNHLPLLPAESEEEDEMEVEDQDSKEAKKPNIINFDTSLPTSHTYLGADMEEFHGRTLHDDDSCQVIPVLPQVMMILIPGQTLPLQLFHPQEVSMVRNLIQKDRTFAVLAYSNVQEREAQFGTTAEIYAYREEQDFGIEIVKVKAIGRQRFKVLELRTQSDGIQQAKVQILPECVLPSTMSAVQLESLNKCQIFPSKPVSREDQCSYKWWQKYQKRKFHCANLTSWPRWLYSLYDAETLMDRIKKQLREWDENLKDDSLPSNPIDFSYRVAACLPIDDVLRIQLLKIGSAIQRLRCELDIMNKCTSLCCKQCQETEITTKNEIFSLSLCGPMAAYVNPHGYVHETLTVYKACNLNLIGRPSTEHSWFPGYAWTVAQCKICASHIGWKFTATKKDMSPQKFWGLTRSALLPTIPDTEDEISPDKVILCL
T2 sequence (Q16531 whole entry partner): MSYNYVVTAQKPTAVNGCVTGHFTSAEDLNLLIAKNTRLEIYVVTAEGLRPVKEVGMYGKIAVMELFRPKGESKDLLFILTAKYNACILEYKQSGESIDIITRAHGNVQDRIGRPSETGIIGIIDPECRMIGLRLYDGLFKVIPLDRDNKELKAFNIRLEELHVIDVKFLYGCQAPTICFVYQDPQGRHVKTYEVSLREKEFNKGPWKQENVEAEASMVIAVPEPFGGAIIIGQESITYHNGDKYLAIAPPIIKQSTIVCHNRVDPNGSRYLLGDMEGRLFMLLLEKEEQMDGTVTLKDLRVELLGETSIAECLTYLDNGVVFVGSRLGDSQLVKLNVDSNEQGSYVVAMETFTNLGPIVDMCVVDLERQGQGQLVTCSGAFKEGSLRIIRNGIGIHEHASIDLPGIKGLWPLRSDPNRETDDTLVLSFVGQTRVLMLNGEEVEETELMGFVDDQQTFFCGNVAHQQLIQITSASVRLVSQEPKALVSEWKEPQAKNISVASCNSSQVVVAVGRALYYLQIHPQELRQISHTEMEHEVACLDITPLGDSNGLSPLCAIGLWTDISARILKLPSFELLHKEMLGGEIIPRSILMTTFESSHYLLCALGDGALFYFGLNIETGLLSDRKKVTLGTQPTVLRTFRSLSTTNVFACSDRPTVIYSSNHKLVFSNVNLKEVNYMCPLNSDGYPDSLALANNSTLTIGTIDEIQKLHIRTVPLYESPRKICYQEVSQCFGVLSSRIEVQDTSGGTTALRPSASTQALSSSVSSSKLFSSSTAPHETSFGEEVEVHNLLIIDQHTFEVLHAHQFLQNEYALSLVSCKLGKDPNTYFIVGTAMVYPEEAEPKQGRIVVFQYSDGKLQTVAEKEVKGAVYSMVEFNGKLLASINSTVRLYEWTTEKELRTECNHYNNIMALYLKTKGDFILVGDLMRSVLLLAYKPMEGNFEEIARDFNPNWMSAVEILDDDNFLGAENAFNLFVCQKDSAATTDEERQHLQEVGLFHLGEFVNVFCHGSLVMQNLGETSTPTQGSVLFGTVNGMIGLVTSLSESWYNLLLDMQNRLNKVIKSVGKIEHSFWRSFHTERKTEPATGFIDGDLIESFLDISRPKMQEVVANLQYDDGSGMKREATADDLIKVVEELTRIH
T1 sequence (Q13422 whole entry): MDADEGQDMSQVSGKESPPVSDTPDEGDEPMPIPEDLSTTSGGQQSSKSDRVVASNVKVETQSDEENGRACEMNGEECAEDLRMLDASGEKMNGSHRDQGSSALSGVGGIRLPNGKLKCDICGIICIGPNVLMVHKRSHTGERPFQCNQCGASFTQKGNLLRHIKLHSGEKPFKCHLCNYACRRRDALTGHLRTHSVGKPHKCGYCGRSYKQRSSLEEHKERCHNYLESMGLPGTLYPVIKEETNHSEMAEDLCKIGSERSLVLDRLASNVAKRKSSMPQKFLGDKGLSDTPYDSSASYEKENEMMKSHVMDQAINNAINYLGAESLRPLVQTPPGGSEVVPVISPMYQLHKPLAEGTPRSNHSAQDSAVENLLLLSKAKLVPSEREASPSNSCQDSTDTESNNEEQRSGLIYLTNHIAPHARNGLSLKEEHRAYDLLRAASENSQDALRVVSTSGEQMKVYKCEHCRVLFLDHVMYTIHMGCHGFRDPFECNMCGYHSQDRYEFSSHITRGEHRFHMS
T1 sequence (Q96SW2 whole entry): as the sequence (Q96SW2 whole entry) above
T1 sequence (Q16531 whole entry partner): as the sequence (Q16531 whole entry partner) above

| Dmax [1] | DC50 [1] | Dmax [2] | DC50 [2] | Compound |
| --- | --- | --- | --- | --- |
| 55% | 403 nM | 84% | 401 nM | O=C1CCC(N2Cc3cc(CNC4CCC5(CC4)COC5)ccc3C2=O)C(=O)N1 (centres unmarked) [Example 60] |
|  | > 1000 nM | 65% | 172 nM | O=C1CCC(N2Cc3cc(CNC4(CCc5ccccc5)CCCCC4)ccc3C2=O)C(=O)N1 (centres unmarked) [Example 152, 3-(1-oxo-5-(((1-phenethylcyclohexyl)amino)methyl)isoindolin-2-yl)piperidine-2,6-dione] |
| 30% | 1700 nM | 81% | 115 nM | C[C@H]1CCCC[C@H]1NCc1ccc2c(c1)CN(C1CCC(=O)NC1=O)C2=O (some centres unmarked) [Example 78] |
| 94% | 17 nM | 93% | 105 nM | C[C@H]1CC[C@@H](NCc2ccc3c(c2)CN(C2CCC(=O)NC2=O)C3=O)CN1Cc1ccccc1 (stereo partly drawn) [Example 119, 3-(5-((((3R,6S)-1-benzyl-6-methylpiperidin-3-yl)amino)methyl)-1-oxoisoindolin-2-yl)piperidine-2,6-dione] |
| 93% | 169 nM | 92% | 336 nM | O=C1CCC(N2Cc3cc(CNC4CCCC(Cn5cccn5)C4)ccc3C2=O)C(=O)N1 (centres unmarked) [Example 121] |
| 42% | 104 nM | 64% | 181 nM | O=C1CCC(N2Cc3cc(CNC4CCCC(C(F)(F)F)C4)ccc3C2=O)C(=O)N1 (stereo not drawn) [Example 128, 3-(1-oxo-5-((((1,3-trans)-3-(trifluoromethyl)cyclohexyl)amino)methyl)isoindolin-2-yl)piperidine-2,6-dione] |
| 97% | 2 nM | 97% | 11 nM | O=C1CCC(N2Cc3cc(CN[C@@H]4CCCN(Cc5cccc(Cl)c5)C4)ccc3C2=O)C(=O)N1 (stereo partly drawn) [Example 99, 3-(5-((((R)-1-(3-chlorobenzyl)piperidin-3-yl)amino)methyl)-1-oxoisoindolin-2-yl)piperidine-2,6-dione] |
| 45% | 762 nM | 67% | 1300 nM | O=C1CCC(N2Cc3cc(CN[C@H]4CCC[C@@H](O)C4)ccc3C2=O)C(=O)N1 (some centres unmarked) [Example 81] |
| 68% | 70 nM | 68% | 154 nM | O=C1CCC(N2Cc3cc(CN[C@@H]4CCCC[C@@H]4Cc4ccccc4)ccc3C2=O)C(=O)N1 (some centres unmarked) [Example 68] |
| 93% | 30 nM | 84% | 182 nM | O=C1CCC(N2Cc3cc(CN[C@@H]4C[C@H](F)CN(Cc5ccccc5)C4)ccc3C2=O)C(=O)N1 (some centres unmarked) [Example 45] |
| 96% | 115 nM | 96% | 318 nM | O=C1CCC(N2Cc3cc(CN[C@@H]4CCCN(Cc5cccnc5)C4)ccc3C2=O)C(=O)N1 (stereo partly drawn) [Example 124, 3-(1-oxo-5-((((R)-1-(pyridin-3-ylmethyl)piperidin-3-yl)amino)methyl)isoindolin-2-yl)piperidine-2,6-dione] |
| 95% | 3 nM | 96% | 8 nM | O=C1CCC(N2Cc3cc(CN[C@@H]4CCC[C@H](Cc5ccccc5Cl)C4)ccc3C2=O)C(=O)N1 (some centres unmarked) [Example 137] |
|  | > 10000 nM | 21% | 328 nM | CN(Cc1ccc2c(c1)CN(C1CCC(=O)NC1=O)C2=O)C1CCN(Cc2ccccc2)CC1 (centres unmarked) [Example 18, 3-(5-(((1-benzylpiperidin-4-yl)(methyl)amino)methyl)-1-oxoisoindolin-2-yl)piperidine-2,6-dione] |
| 62% | 52 nM | 78% | 68 nM | O=C1CCC(N2Cc3cc(CNC4CCC5(CCc6ccccc65)CC4)ccc3C2=O)C(=O)N1 (centres unmarked) [Example 114, 3-(5-(((2′,3′-dihydrospiro[cyclohexane-1,1′-inden]-4-yl)amino)methyl)-1-oxoisoindolin-2-yl)piperidine-2,6-dione] |
| 75% | 35 nM | 27% | 264 nM | O=C1CCC(N2Cc3cc(CNCc4ccccc4)ccc3C2=O)C(=O)N1 (centres unmarked) [Example 33, 3-(5-((benzylamino)methyl)-1-oxoisoindolin-2-yl)piperidine-2,6-dione] |
| 57% | 213 nM | 85% | 170 nM | CO[C@@H]1CCCC[C@H]1NCc1ccc2c(c1)CN(C1CCC(=O)NC1=O)C2=O (some centres unmarked) [Example 127] |
| 44% | 117 nM | 81% | 114 nM | O=C1CCC(N2Cc3cc(CN[C@H]4CC[C@@H](C(F)(F)F)CC4)ccc3C2=O)C(=O)N1 (some centres unmarked) [Example 85] |
| 95% | 7 nM | 97% | 32 nM | O=C1CCC(N2Cc3cc(CN[C@@H]4CCCN(Cc5ccccc5)C4)ccc3C2=O)C(=O)N1 (stereo partly drawn) [Example 20, 3-(5-((((R)-1-benzylpiperidin-3-yl)amino)methyl)-1-oxoisoindolin-2-yl)piperidine-2,6-dione] |
| 57% | 66 nM | 68% | 113 nM | O=C1CCC(N2Cc3cc(CNC4CCC(Cc5ccccc5)C4)ccc3C2=O)C(=O)N1 (centres unmarked) [Example 69] |
| 79% | 56 nM | 72% | 261 nM | O=C1CCC(N2Cc3cc(CN[C@H]4CCCN(Cc5ccccc5)C4)ccc3C2=O)C(=O)N1 (stereo partly drawn) [Example 21, 3-(5-((((S)-1-benzylpiperidin-3-yl)amino)methyl)-1-oxoisoindolin-2-yl)piperidine-2,6-dione] |
| 97% | 22 nM | 96% | 48 nM | O=C1CCC(N2Cc3cc(CNC4CCCC(Cn5ncc6ccccc65)C4)ccc3C2=O)C(=O)N1 (centres unmarked) [Example 122] |
| 51% | 121 nM | 80% | 117 nM | O=C1CCC(N2Cc3cc(CNC4CCC(Cc5ccccc5)CC4)ccc3C2=O)C(=O)N1 (centres unmarked) [Example 10, 3-(5-(((4-benzylcyclohexyl)amino)methyl)-1-oxoisoindolin-2-yl)piperidine-2,6-dione] |
| 82% | 23 nM | 81% | 68 nM | O=C1CCC(N2Cc3cc(CN[C@H]4CCC[C@@H](Cc5ccccc5)C4)ccc3C2=O)C(=O)N1 (some centres unmarked) [Example 116] |
| 66% | 3800 nM | 61% | 3800 nM | NC(=O)C1CCCC(NCc2ccc3c(c2)CN(C2CCC(=O)NC2=O)C3=O)C1 (stereo not drawn) [Example 96, (1,3-cis)-3-(((2-(2,6-dioxopiperidin-3-yl)-1-oxoisoindolin-5-yl)methyl)amino)cyclohexane-1-carboxamide] |
|  | > 10000 nM | 29% | 1800 nM | O=C1CCC(N2Cc3cc(CNC45CC(C4)C5)ccc3C2=O)C(=O)N1 (centres unmarked) [Example 15, 3-(5-((bicyclo[1.1.1]pentan-1-ylamino)methyl)-1-oxoisoindolin-2-yl)piperidine-2,6-dione] |
| 42% | 89 nM | 67% | 303 nM | O=C1CCC(N2Cc3cc(CNC4CCc5cccnc5C4)ccc3C2=O)C(=O)N1 (centres unmarked) [Example 70, 3-(1-oxo-5-(((5,6,7,8-tetrahydroquinolin-7-yl)amino)methyl)isoindolin-2-yl)piperidine-2,6-dione] |
